According to patent US6211214A, “Biphenyl ether oxazolines and their use as pest-control agents” (Bayer Aktiengesellschaft, priority 1995, dated 2001):

Assay: log p (partition coefficient octanol/water, determined experimentally from reversed phase HPLC)
Assay type: physicochemical
Settings: for chromatographic logP: reversed phase hplc
From the text: [log p=logarithm of the partition coefficient p of the substance between the solvents octanol and water, determined experimentally from reversed phase HPLC]

| chromatographic logP (A isomer) | chromatographic logP (B isomer) | chromatographic logP | SMILES | further results |
| --- | --- | --- | --- | --- |
| – | – | 4.98 | CCON=C(C)COc1ccc(-c2ccc(C3COC(c4c(F)cccc4Cl)=N3)cc2)cc1 (stereo not shown) [Example 81] | – |
| – | – | 4.38 | O=C(COc1ccc(-c2ccc(C3COC(c4ccccc4Cl)=N3)cc2)cc1)c1ccccc1 (stereo not shown) [Example 49] | – |
| – | – | 4.87 | CCCC(C#N)Oc1ccc(-c2ccc(C3COC(c4c(F)cccc4F)=N3)cc2)cc1Cl (stereo not shown) [Example 91] | – |
| 4.98 | 4.9 | – | CCON=C(CC)COc1ccc(-c2ccc(C3COC(c4c(F)cccc4F)=N3)cc2)cc1 (stereo not shown) [Example 66] | – |
| 5.44 | 5.56 | – | CCON=C(C)C(C)Oc1ccc(-c2ccc(C3COC(c4ccccc4Cl)=N3)cc2)cc1 (stereo not shown) [Example 59] | – |
| – | – | 5.5 | CON=C(c1cccc(C(F)(F)F)c1)C(C)Oc1ccc(-c2ccc(C3COC(c4c(F)cccc4F)=N3)cc2)cc1 (stereo not shown) [Example 106] | – |
| – | – | 4.61 | CC(=O)C(C)(C)Oc1ccc(-c2ccc(C3COC(c4c(F)cccc4F)=N3)cc2)cc1Cl (stereo not shown) [Example 153] | – |
| – | – | 4.56 | CC(=O)C(C)(C)Oc1ccc(-c2ccc(C3COC(c4ccccc4Cl)=N3)cc2)cc1 (stereo not shown) [Example 152] | – |
| 4.9 | 4.56 | – | CON=C(COc1ccc(-c2ccc(C3COC(c4c(F)cccc4F)=N3)cc2)cc1)C1CC1 (stereo not shown) [Example 26] | – |
| – | – | 4.47 | CC(=NOC(C)C)C(C)Oc1ccc(-c2ccc(C3COC(c4c(F)cccc4F)=N3)cc2)cc1 (stereo not shown) [Example 69] | – |
| 3.82 | 3.39 | – | CC(=NO)C(C)(C)Oc1ccc(-c2ccc(C3COC(c4c(F)cccc4F)=N3)cc2)cc1 (stereo not shown) [Example 167] | – |
| 6.34 | 6.05 | – | CON=C(COc1ccc(-c2ccc(C3COC(c4c(F)cccc4F)=N3)cc2)cc1)c1ccc(CC(C)C)cc1 (stereo not shown) [Example 154] | – |
| 5.61 | 5.54 | – | CCON=C(COc1ccc(-c2ccc(C3COC(c4c(F)cccc4F)=N3)cc2)cc1)c1ccc(Cl)cc1 (stereo not shown) [Example 131] | – |
| 4.7 | 4.91 | – | CON=C(COc1ccc(-c2ccc(C3COC(c4c(F)cccc4F)=N3)cc2)cc1)c1ccc(OC)cc1 (stereo not shown) [Example 149] | – |
| – | – | 4.55 | CC(C)(C(=O)COc1ccc(-c2ccc(C3COC(c4c(F)cccc4F)=N3)cc2)cc1)C(Cl)Cl (stereo not shown) [Example 71] | – |
| 5.31 | 5.42 | – | CCON=C(C)C(C)Oc1ccc(-c2ccc(C3COC(c4c(F)cccc4Cl)=N3)cc2)cc1 (stereo not shown) [Example 62] | – |
| 5.02 | 5.13 | – | CCON=C(C)C(C)Oc1ccc(-c2ccc(C3COC(c4c(F)cccc4F)=N3)cc2)cc1 (stereo not shown) [Example 48] | – |
| 6.15 | 6.3 | – | CC(=NOC(C)C)C(C)Oc1ccc(-c2ccc(C3COC(c4c(F)cccc4Cl)=N3)cc2)cc1 (stereo not shown) [Example 123] | – |

| chromatographic logP (A isomer) | chromatographic logP (B isomer) | chromatographic logP | SMILES | further results |
| --- | --- | --- | --- | --- |
| – | – | 5.14 | CON=C(C)C(C)(C)Oc1ccc(-c2ccc(C3COC(c4c(F)cccc4F)=N3)cc2)cc1 (stereo not shown) [Example 100] | – |
| 5.49 | – | – | CCON=C(C)COc1ccc(-c2ccc(C3COC(c4c(F)cccc4F)=N3)cc2)cc1 (stereo not shown) [Example 83] | log p (B isomer): 5.56 |
| 4.79 | 4.7 | – | CON=C(C)COc1ccc(-c2ccc(C3COC(c4c(F)cccc4F)=N3)cc2)cc1Cl (stereo not shown) [Example 86] | – |
| 5.72 | 5.49 | – | CCON=C(COc1ccc(-c2ccc(C3COC(c4c(F)cccc4F)=N3)cc2)cc1)C(C)C (stereo not shown) [Example 78] | – |
| 5.04 | 5.11 | – | C=CCON=C(C)COc1ccc(-c2ccc(C3COC(c4c(F)cccc4Cl)=N3)cc2)cc1 (stereo not shown) [Example 125] | – |
| – | – | 5.61 | CON=C(C)C(C)(C)Oc1ccc(-c2ccc(C3COC(c4c(F)cccc4F)=N3)cc2)cc1Cl (stereo not shown) [Example 170] | – |
| – | – | 6.06 | CON=C(C)C(C)(C)Oc1ccc(-c2ccc(C3COC(c4ccccc4Cl)=N3)cc2)cc1Cl (stereo not shown) [Example 175] | – |
| 6.3 | 6.44 | – | CC(=NOC(C)C)C(C)Oc1ccc(-c2ccc(C3COC(c4ccccc4Cl)=N3)cc2)cc1Cl (stereo not shown) [Example 145] | – |
| 5.07 | 5.35 | – | CON=C(COc1ccc(-c2ccc(C3COC(c4c(F)cccc4F)=N3)cc2)cc1)c1ccc(C)cc1 (stereo not shown) [Example 133] | – |
| – | – | 4.44 | CCOC(COc1ccc(-c2ccc(C3COC(c4c(F)cccc4F)=N3)cc2)cc1)OCC (stereo not shown) [Example 43] | – |
| 5.62 | 5.44 | – | CON=C(COc1ccc(-c2ccc(C3COC(c4c(F)cccc4F)=N3)cc2)cc1)c1cc(Cl)ccc1Cl (stereo not shown) [Example 191] | – |
| – | – | 4.78 | O=C(COc1ccc(-c2ccc(C3COC(c4c(F)cccc4F)=N3)cc2)cc1)c1cc(Cl)ccc1Cl (stereo not shown) [Example 132] | – |
| – | – | 3.35 | CCN(CC)C(=O)COc1ccc(-c2ccc(C3COC(c4c(F)cccc4F)=N3)cc2)cc1 (stereo not shown) [Example 15] | – |
| 5.28 | 4.92 | – | CCON=C(COc1ccc(-c2ccc(C3COC(c4c(F)cccc4F)=N3)cc2)cc1)C1CC1 (stereo not shown) [Example 56] | – |
| – | – | 4.28 | O=C(COc1ccc(-c2ccc(C3COC(c4c(F)cccc4Cl)=N3)cc2)cc1)c1ccccc1 (stereo not shown) [Example 93] | – |
| 5.59 | 5.35 | – | CCON=C(COc1ccc(-c2ccc(C3COC(c4c(F)cccc4F)=N3)cc2)cc1)c1ccc(OC(F)(F)C(F)F)cc1 (stereo not shown) [Example 158] | – |
| 5.42 | 5.71 | – | CCON=C(COc1ccc(-c2ccc(C3COC(c4c(F)cccc4F)=N3)cc2)cc1)c1ccc(C)cc1 (stereo not shown) [Example 134] | – |
| – | – | 4.48 | CC(=O)C(C)(C)Oc1ccc(-c2ccc(C3COC(c4c(F)cccc4Cl)=N3)cc2)cc1 (stereo not shown) [Example 151] | – |

More lines, now with the values behind:

| SMILES | chromatographic logP (A isomer) | chromatographic logP (B isomer) | chromatographic logP | further results |
| --- | --- | --- | --- | --- |
| CCON=C(C)C(C)Oc1ccc(-c2ccc(C3COC(c4ccccc4Cl)=N3)cc2)cc1Cl (stereo not shown) [Example 144] | 5.83 | 6.01 | – | – |
| CON=C(COc1ccc(-c2ccc(C3COC(c4c(F)cccc4Cl)=N3)cc2)cc1)c1ccccc1 (stereo not shown) [Example 94] | – | – | 5.25 | – |
| CC(=O)C(C)Oc1ccc(-c2ccc(C3COC(c4ccccc4Cl)=N3)cc2)cc1Cl (stereo not shown) [Example 113] | – | – | 4.51 | – |
| CON=C(COc1ccc(-c2ccc(C3COC(c4c(F)cccc4F)=N3)cc2)cc1)c1ccc(OC(F)(F)C(F)F)cc1 (stereo not shown) [Example 157] | 5.28 | 5.04 | – | – |
| CON=C(C)C(C)Oc1ccc(-c2ccc(C3COC(c4c(F)cccc4F)=N3)cc2)cc1 (stereo not shown) [Example 23] | 4.62 | 4.71 | – | – |
| CON=C(COc1ccc(-c2ccc(C3COC(c4ccccc4Cl)=N3)cc2)cc1)c1ccccc1 (stereo not shown) [Example 52] | – | – | 5.4 | – |
| C=CCON=C(C)COc1ccc(-c2ccc(C3COC(c4c(F)cccc4F)=N3)cc2)cc1 (stereo not shown) [Example 89] | 4.78 | 4.72 | – | – |
| CON=C(COc1ccc(-c2ccc(C3COC(c4c(F)cccc4F)=N3)cc2)cc1)c1ccc(Cl)c(C)c1 (stereo not shown) [Example 140] | 5.57 | 5.88 | – | – |
| CC(COc1ccc(-c2ccc(C3COC(c4c(F)cccc4F)=N3)cc2)cc1)=NOC(C)C (stereo not shown) [Example 80] | 5.1 | 5.17 | – | – |
| CON=C(COc1ccc(-c2ccc(C3COC(c4c(F)cccc4F)=N3)cc2)cc1)c1cccc(Cl)c1 (stereo not shown) [Example 115] | 5.52 | 5.19 | – | – |
| CCCCC(Oc1ccc(-c2ccc(C3COC(c4c(F)cccc4F)=N3)cc2)cc1)C(=O)OCC (stereo not shown) [Example 61] | – | – | 5.24 | – |
| CON(C)C(=O)COc1ccc(-c2ccc(C3COC(c4c(F)cccc4F)=N3)cc2)cc1 (stereo not shown) [Example 34] | – | – | 3.07 | – |
| CON=C(COc1ccc(-c2ccc(C3COC(c4c(F)cccc4F)=N3)cc2)cc1)C1(Cl)CC1 (stereo not shown) [Example 55] | 5.09 | 4.78 | – | – |
| CCON=C(COc1ccc(-c2ccc(C3COC(c4c(F)cccc4F)=N3)cc2)cc1)C1(Cl)CC1 (stereo not shown) [Example 57] | 5.49 | 4.85 | – | – |
| CCON=C(C)C(C)(C)Oc1ccc(-c2ccc(C3COC(c4c(F)cccc4F)=N3)cc2)cc1Cl (stereo not shown) [Example 171] | – | – | 5.05 | – |
| O=C(COc1ccc(-c2ccc(C3COC(c4c(F)cccc4F)=N3)cc2)cc1)C1(Cl)CC1 (stereo not shown) [Example 54] | – | – | 4.04 | – |
| C=CCON=C(C)COc1ccc(-c2ccc(C3COC(c4ccccc4Cl)=N3)cc2)cc1 (stereo not shown) [Example 142] | 5.12 | 5.2 | – | – |
| CC(C)C(C)(C)C(=O)COc1ccc(-c2ccc(C3COC(c4c(F)cccc4F)=N3)cc2)cc1 (stereo not shown) [Example 68] | – | – | 4.55 | – |
| CCON=C(C)C(C)(C)Oc1ccc(-c2ccc(C3COC(c4ccccc4Cl)=N3)cc2)cc1Cl (stereo not shown) [Example 176] | – | – | 6.49 | – |
| CO/N=C(/COc1ccc(-c2ccc(C3COC(c4c(F)cccc4F)=N3)cc2)cc1)C1CC1 (stereo not shown) [Example 24] | – | – | – | chromatographic logP (E isomer): 4.9 |
| CON=C(c1ccccc1F)C(C)Oc1ccc(-c2ccc(C3COC(c4c(F)cccc4F)=N3)cc2)cc1 (stereo not shown) [Example 108] | – | – | 5.01 | – |
| CON=C(COc1ccc(-c2ccc(C3COC(c4c(F)cccc4F)=N3)cc2)cc1)c1ccc(Cl)cc1 (stereo not shown) [Example 130] | 5.27 | 5.54 | – | – |
| CON=C(COc1ccc(-c2ccc(C3COC(c4c(F)cccc4F)=N3)cc2)cc1)c1cccc(C(F)(F)F)c1 (stereo not shown) [Example 121] | 5.8 | 4.49 | – | – |
| CCON=C(C)C(C)Oc1ccc(-c2ccc(C3COC(c4c(F)cccc4F)=N3)cc2)cc1 (single isomer, unassigned) [Example 70] | – | – | 5.12 | – |
| CCON=C(COc1ccc(-c2ccc(C3COC(c4c(F)cccc4F)=N3)cc2)cc1)c1ccc(C(F)(F)F)cc1 (stereo not shown) [Example 112] | 5.87 | 5.57 | – | – |
| CC(C)C(C#N)Oc1ccc(-c2ccc(C3COC(c4c(F)cccc4F)=N3)cc2)cc1Cl (stereo not shown) [Example 102] | – | – | 4.84 | – |
| CC(=NOC(C)C)C(C)Oc1ccc(-c2ccc(C3COC(c4ccccc4Cl)=N3)cc2)cc1 (stereo not shown) [Example 136] | 5.88 | 6.02 | – | – |
